Assay [1] deals with T1, IdeR (Mycobacterium tuberculosis, UniProt P9WMH1). As to the kind of experiment: biochemical. Particulars: EMSA. In general terms: A gel shift assay detects complexes by their altered migration in electrophoresis.
Assay [2] addresses T1, IdeR. In words: EMSA competition experiments with increasing labeled DNA. The class given is biochemical. The following applies: DNA 0.8 pmoles to 12.8 pmoles.
Assay [3] concerns M. tuberculosis. As to the kind of experiment: Resazurin microtiter assay (REMA) whole cell MIC90 in broth culture. Type of assay: cell-based, Mycobacterium tuberculosis. The following applies: MB7H9 medium, Mean ± S.E., three experiments; for MIC90: Mycobacterium tuberculosis, read-out: MIC90 of compounds against M. tuberculosis.
For assay [4], the system named is MDCK (Madine darby canine kidney cell line). In words: Cytotoxicity by REMA in MDCK. Type of assay: cell-based. Particulars: 1-200 µg/ml; for IC50: Canis lupus familiaris, MDCK, read-out: Inhibition in MDCK (IC50 in µg/ml). The method, then: (§1) The cytotoxicity of the compounds was determined by employing REMA using various mammalian cell lines such as THP-1 (human monocytic macrophage cell line), HEK (Human Embryonic Kidney cell line), MDCK (Madine darby canine kidney cell line) and HepG2 (Human hepatocellular carcinoma cell line). 1 × 10^4 cells/well were employed in a sterilized 96-well plate containing serial dilutions of compounds ranging from 1 µg/ml to 200 µg/ml concentration, in their respective media (RPMI for THP-1, DMEM for HEK and HepG2 and MEM for MDCK) with 10% fetal bovine serum and Antibiotic-Antimycotic mix (Invitrogen Corporation, Carlsbad, California, USA). IC50 is defined as the concentration of the compound that causes 50% reduction in the fluorescence intensity indicating 50% viable cells. IC50 values were determined from the results of at least two independent tests and Mean ± S.E.M was calculated from the inhibition curve using GraphPad Prism 5.

Assay [5] relates to HEK (Human Embryonic Kidney cell line). In words: Cytotoxicity by REMA in HEK. Type of assay: cell-based. The following applies: 1-200 µg/ml; for IC50: Homo sapiens, read-out: Inhibition in HEK (IC50 in µg/ml). How it is done:
as §1

Assay [6] has as its system HepG2 (Human hepatocellular carcinoma cell line). In words: Cytotoxicity by REMA in HepG2. The class given is cell-based. Particulars: for Inhibition in HepG2 (IC50 in µg/ml): 1-200 µg/ml; for IC50: Homo sapiens, HepG2, 1-200 µg/ml, read-out: Inhibition in HepG2 (IC50 in µg/ml). How it is done: as §1
The subject of assay [7] is THP-1 (human monocytic macrophage cell line). As to the kind of experiment: Cytotoxicity by REMA in THP-1. The following applies: for Inhibition in THP1 (IC50 in µg/ml): 1-200 µg/ml; for IC50: Homo sapiens, THP-1, 1-200 µg/ml, read-out: Inhibition in THP1 (IC50 in µg/ml). The class given is cell-based. How it is done:
as §1

The mark [8] stands for this setting: 0.35 µg IdeR, 0.8 picomoles labeled DNA, 200 µM NiSO4, inhibitor 0.4-100 µg/ml.
[9] abbreviates: same values given in µM, read-out: IC50.
The mark [10] stands for this setting: 0.35 µg IdeR, 0.8 picomoles labeled DNA, 200 µM NiSO4, inhibitor 0.4-100 µg/ml, read-out: IC50 (µg/ml) (converted).

In general, MIC90 refers to an inhibitory concentration at the 90% level, which refers to growth in some studies and to a panel of isolates in others.

Converted amounts (≈) assume the structure as drawn. “And” between values parts separate entries of the source, which are not always exact repeats. Equal values may be shown once. Where a name gives a salt, the structure may show the parent alone. Read-outs that look alike come from different tables or passages of the source.

T1 sequence (P9WMH1 whole entry, looked up): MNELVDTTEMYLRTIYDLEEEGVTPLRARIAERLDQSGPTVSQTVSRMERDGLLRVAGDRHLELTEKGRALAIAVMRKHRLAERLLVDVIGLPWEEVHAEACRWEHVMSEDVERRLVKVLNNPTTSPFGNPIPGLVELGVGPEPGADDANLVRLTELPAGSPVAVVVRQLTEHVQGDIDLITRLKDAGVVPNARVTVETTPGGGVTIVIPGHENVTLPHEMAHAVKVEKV

In the case of “4-oxo-3-({4-[-(4-sulfophenyl)diazenyl]phenyl}hydrazono)-3,4-dihydro-1-naphtalenesulfonic acid [IS-7]”, the “IC50” value was determined as 32.13 ± 1.56 µg/mL in assay [1] (setting [8]) and 57.5 µM in assay [1] (setting [9]).

“5[phenylimino)methyl]benzene-1,2,3 triol [IS-51]”: the “IC50” value in assay [1] (setting [8]) is 16.5 µg/mL and 16.52 ± 1.72 µg/mL; in assay [1] (setting [9]), 72 µM.

In the case of `O=C1OC(C=Cc2ccccc2)=NC1=Cc1cccc([N+](=O)[O-])c1` [Compound I-18, 4-(3-nitrobenzylidene)-2-[2-phenylethenyl]-1,3-oxazol5(4H)-one], the IC50 in assay [1] (setting [10]) and in assay [1] (setting [9]) was 43.7 µM in each case.

As for `NC(CC(=O)O)C(=O)OCc1cccc(/N=N/c2ccccc2)c1` (centres unmarked) [Compound I-21], the values for the IC50 in assay [1] (setting [10]) and in assay [1] (setting [9]) were 16.7 µM and 16.8 µM, respectively. Further, in assay [2], the “mode of inhibition in competition with DNA” value is given as “competing with DNA”.

As to `Cc1cc(=O)oc2c(CNC(C)C(=O)O)cc(O)cc12` (centres unmarked) [Compound I-38], the “IC50” value is 100 ± 3.176 µg/mL in assay [1] (setting [8]) and 361 µM in assay [1] (setting [9]).

For `O=S(=O)(Nc1ccc(Cl)cc1NS(=O)(=O)c1ccccc1)c1ccccc1` [Compound I-85, N,N`-(4-chlorobenzene-1,2-diyl)dibenzenesulfonamide], the figures for the IC50 in assay [1] (setting [10]) and in assay [1] (setting [9]) were 67.2 µM and 67.1 µM, respectively.

With `O=C(NN=c1ccc([N+](=O)[O-])c[nH]1)Nc1ccc(-c2ccccc2)cc1` [Compound I-89, N-(biphenyl-4-yl)-2-(5-nitropyridin-2(1H)-ylidene)hydrazinecarboxamide], the IC50 is 83.3 µM in assay [1] (setting [10]) and 83.4 µM in assay [1] (setting [9]).

For the molecule `Cc1ccccc1N=Nc1ccc2c(S(=O)(=O)[O-])cccc2c1O.[Na+]` [Compound I-90, 1-Naphthalenesulfonic acid,5-hydroxy-6-[(2-methylphenyl)azo]-monosodium salt], the figures for the “IC50” value in assay [1] (setting [8]) and in assay [1] (setting [9]) were 45.27 ± 1.3 µg/mL and 124 µM, respectively.

Turning to `O=C1N[C@H]2CCCC[C@@H]2C(=O)N1OS(=O)(=O)c1ccccc1` [Compound I-91, (4As,8As)-3-[(phenylsulfonyl)oxy]hexahydroquinazoline-2,4(1H,3H)-dione], the IC50 in assay [1] (setting [10]) and in assay [1] (setting [9]) was 231 µM each time.

For the molecule `NC(Cc1c[nH]c2cc(OCc3ccccc3)ccc12)C(=O)O` (centres unmarked) [Compound I-92, 2-amino-3-[6-(benzyloxy)-1H-indol-3-yl]propanoic acid], the IC50 in assay [1] (setting [10]) and in assay [1] (setting [9]) was 189 µM each time.

On to `Cc1c2ccccc2nc(C[S+]([O-])c2ccccc2)[n+]1[O-]` (centres unmarked) [Compound I-93, 4-methyl-2-[(phenylsulfinyl)methyl]quinazoline 3-oxide], for which the values for the IC50 in assay [1] (setting [10]) and in assay [1] (setting [9]) were 181 µM and 182 µM, respectively.

Take `Oc1ccc(/C=N\c2ccccc2/N=C\c2ccc(O)c(O)c2)cc1O` [Compound I-103, 4,4`-{benzene-1,2-diylbis[nitrilo(Z)methylylidene]}dibenzene-1,2-diol]: the IC50 in assay [1] (setting [10]) and in assay [1] (setting [9]) was 95.6 µM in each case.

Turning to `O=C(NN1C(=O)C=C(O)C1=Cc1ccccc1)c1ccccc1` [Compound I-112, N-[2-benzylidene-3-hydroxy-5-oxo-2,5-dihydro-1H-pyrrol-1-yl]benzamide], the IC50 in assay [1] (setting [10]) and in assay [1] (setting [9]) was 170 µM throughout.

For the molecule `Cc1ccccc1NC(=O)Nc1cccc(-c2nnc(Cc3ccc4c(c3)OCO4)o2)c1` [IA8, 3-[3-[5-(1,3-benzodioxol-5-ylmethyl)-1,3,4-oxadiazol-2-yl]phenyl]-1-(o-tolyl) urea], the IC50 in assay [1] (setting [10]) was 143 µM.

For the molecule `O=S(=O)(O)c1ccc(O)c(/N=N/c2ccc(O)cc2O)c1` [IS-2, Benzensulfonic acid, 3-[(2,4-dihydroxyphenyl)azo]-4-hydroxy], the IC50 is 17.4 µM and 17.7 µM in assay [1] (setting [10]); 16.3 µM in assay [1] (setting [9]).

Turning to `COc1ccc(-c2nc3ccccc3s2)cc1S(=O)(=O)O` [IS-4, 5-(1,3-benzothiazol-2-yl)-2-methoxybenzenesulfonic acid], the MIC90 in assay [3] came to 100 µg/mL (≈ 311 µM). Moreover, the IC50 in assay [1] (setting [10]) is 45.1 µM; in assay [1] (setting [9]) it was 42.1 µM; in assay [4] it was 173 ± 2.3 µg/mL (≈ 538 µM); in assay [5] it was 164.7 ± 1.24 µg/mL (≈ 512 µM); in assay [6] it was 176.3 ± 1.6 µg/mL (≈ 549 µM); in assay [7], 166 ± 3.72 µg/mL (≈ 516 µM). Further, the “Inhibition in MDCK (IC50 in µg/ml)” value in assay [4] is “slight toxicity”. Besides, the “Inhibition in HEK (IC50 in µg/ml)” value in assay [5] is given as “slight toxicity”. Moreover, the “Inhibition in HepG2 (IC50 in µg/ml)” value in assay [6] is “slight toxicity”. The “Inhibition in THP1 (IC50 in µg/ml)” value in assay [7] is “slight toxicity”.

On to `O=S(=O)(O)c1cccc2cccc(N=Nc3c(O)ccc4ccccc34)c12` [IS-6, 8-[-(2-hydroxynaphthalen-1-yl)diazenyl]naphthalene-1-sulfonic acid], for which the IC50 was 57.2 µM in assay [1] (setting [10]) and 54 µM in assay [1] (setting [9]).

Take `Nc1ccc(N=Nc2ccc(N=Nc3ccc(N=Nc4cc(S(=O)(=O)O)c5ccccc5c4O)c4ccc(S(=O)(=O)O)cc34)c3ccc(S(=O)(=O)O)cc23)cc1` [IS-8, 1-Naphthalenesulfonic acid, 3-[[4-[[4-[(4-aminophenyl)azo]-6-sulfo-1-naphthalenyl]azo]-6-sulfo-1-naphthalenyl]azo]-4-hydroxy-,trisodium salt]: the IC50 in assay [1] (setting [10]) is 0.813 µM and 0.822 µM; in assay [1] (setting [9]), 0.75 µM.

As to `O=S(=O)([O-])c1cc(N=Nc2c(O)ccc3ccccc23)c2c(S(=O)(=O)[O-])cccc2c1.[Na+].[Na+]` [IS-9, 8-[-(2-hydroxynaphthalen-1-yl)diazenyl]naphthalene-1,6-disulfonic acid, disodium salt], the “IC50” value in assay [1] (setting [8]) is 13.9 ± 7.37 µg/mL; in assay [1] (setting [9]) it was 27.6 µM.

For the molecule `O=S(=O)(O)c1ccc(O)c(/N=N/c2ccc(O)cc2O)c1` [IS-12, Benzene sulfonic acid, 3-[(2,4-dihydroxyphenyl)azo]-4-hydroxy], the IC50 in assay [1] (setting [10]) is 15.1 µM; in assay [1] (setting [9]), 15.2 µM.

Take `Nc1ccc(-c2nc3ccccc3s2)cc1S(=O)(=O)O` [IS-32, 2-Amino-5-(1,3-benzothiazol-2-yl) benzenesulfonic acid]: the IC50 in assay [1] (setting [10]) was 68.3 µM; in assay [1] (setting [9]), 64.8 µM.

On to `Cc1cc(=O)oc2c(CNC(C(=O)O)C(C)O)c(O)ccc12` (centres unmarked) [IS-40, 3-hydroxy-2-{[(7-hydroxy-4-methyl-2-oxo-2H-chromen-8-yl)methyl]amino}butanoic acid], for which the IC50 is 269 µM in assay [1] (setting [10]) and 275 µM in assay [1] (setting [9]).

Consider `O=S(=O)(O)c1ccc2c(N=Nc3cccc4ccccc34)c(O)c(S(=O)(=O)O)cc2c1` [IS-45, 2,7-naphthalenedisulfonic acid, 3-hydroxy-4-(1-napthalenylazo)], for which the “IC50” value in assay [1] (setting [8]) was 20.19 ± 1.74 µg/mL; in assay [1] (setting [9]) it was 40 µM.

As to `Oc1ccccc1C=Nc1ccccc1N=Cc1ccccc1O` [IS-47], the “IC50” value in assay [1] (setting [8]) is 84 ± 1.2 µg/mL; in assay [1] (setting [9]) it was 266 µM.

With `Nc1ccc(-c2nc3ccccc3s2)cc1` [IS-54, 4-(1,3-benzothiazol-2-yl)aniline], in assay [3], the “MIC90 of compounds against M. tuberculosis” value amounted to 84.8 ± 8 µg/mL and the MIC90 stood at 84.8 µg/mL (≈ 375 µM). In assay [1] (setting [10]), the IC50 is 49.5 µM. The IC50 in assay [1] (setting [9]) was found to be 49.6 µM. Also, in assay [4], the “Inhibition in MDCK (IC50 in µg/ml)” value is “slight toxicity” and the IC50 is 174 ± 6.4 µg/mL (≈ 770 µM). Further, in assay [5], the “Inhibition in HEK (IC50 in µg/ml)” value is reported as “slight toxicity” and the IC50 was 161 ± 4.22 µg/mL (≈ 712 µM). Besides, in assay [6], the “Inhibition in HepG2 (IC50 in µg/ml)” value is given as “slight toxicity” and the IC50 came out at 167 ± 3.78 µg/mL (≈ 740 µM). Moreover, in assay [7], the “Inhibition in THP1 (IC50 in µg/ml)” value is “slight toxicity” and the IC50 was 182 ± 5.2 µg/mL (≈ 802 µM).

Regarding `O=S(=O)(O)c1cccc2c(O)c(N=Nc3cccc4ccccc34)ccc12` [IS-55, 1-napthalenesulfonic acid,5-hydroxy-6-(1-naphthalenylazo)], the “IC50” value was determined as 6.6 ± 1.95 µg/mL in assay [1] (setting [8]) and 16.4 µM in assay [1] (setting [9]).

Turning to `COc1ccccc1N=Nc1cc(S(=O)(=O)O)c2ccccc2c1O` [IS-59], the “IC50” value worked out at 18.64 ± 1.532 µg/mL in assay [1] (setting [8]) and 48.9 µM in assay [1] (setting [9]).

With `O=S(=O)(Nc1c(Cl)c(Cl)c(Cl)c(Cl)c1NS(=O)(=O)c1ccccc1)c1ccccc1` [IS-70, N,N-(3,4,5,6-tetrachlorobenzene-1,2-diyl) dibenzenesulfonamide], the “IC50” value is 46.44 ± 1.486 µg/mL in assay [1] (setting [8]) and 88.3 µM in assay [1] (setting [9]).

For `CO[C@H]1/C=C/O[C@@]2(C)Oc3c(C)c(O)c4c(O)c(c(/C=N/N5CCN(C)CC5)c(O)c4c3C2=O)NC(=O)/C(C)=C\C=C\[C@H](C)[C@H](O)[C@@H](C)[C@@H](O)[C@@H](C)[C@H](OC(C)=O)[C@@H]1C` [Rifampicin, reference compound], in assay [3], the MIC90 is 0.05 to 0.2 µg/mL (≈ 0.0608 to 0.243 µM). Moreover, the IC50 in assay [4], in assay [5], in assay [6] and in assay [7] was over 100 µg/mL throughout.
